Patent US11860169B2, “Method of treating and prognosing scoliotic patient subgroups” (Chu Sainte-Justine, priority 2013, dated 2024)
“Also recorded” adds a separate entry of the source.

Experiments:
[1] = tested on: Gi-mediated cell signaling; assay: Gi-mediated cellular response measured by cellular impedance (CellKey system) in osteoblasts treated with OPN, HA or antibodies; format: cell-based, human; conditions: LPA stimulation
Experimental: Gi-mediated cellular response in the presence of increasing amounts of rOPN was measured by cellular impedance using the CellKey™ system (Akoume et al., 2010; and Akoume et al., 2013 (J. Vis. Exp.)) in functional groups FG1, FG2 and FG3;
Osteoblasts from healthy subjects and AIS patients of each endophenotype (FG1, FG2 and FG3) were treated with vehicle, OPN (500 ng/ml) or HA (10 μM). The Gi-mediated cellular response in the presence of increasing amounts of LPA was measured by cellular impedance using the CellKey™ system;
(§1) CD44 activity (A) or expression (B) was inhibited in osteoblasts from control, FG1, FG2 and FG3 patients and the effect on OPN-dependent inhibition of Gi-mediated cell signaling was monitored using the CellKey™ system following stimulation with LPA.
Antibodies against integrins β1, β3 and β5 reverse the effect of OPN on Gi-mediated response in FG2 and FG3 subjects only, while blockade of CD44 further potentiates the effect of OPN.
(§2) The variation in Gi-mediated cell signaling in response to OPN in each functional group (FG1, FG2 and FG3) was studied. FIGS. 20 and 21 show the response to OPN (increasing doses) on osteoblasts isolated from patients classified into functional groups FG1, FG2 and FG3. […] Furthermore, MC3T3-E1 cells were used to check the effect of the knockdown of OPN and its receptors. MC3T3-E1 osteoblasts cells were transiently transfected in serum-free medium, using Lipofectamine™ RNAiMAX reagent (Invitrogen) according to the manufacturers instructions and functional experiments were performed 48 h post transfection.

[2] = tested on: Gi-mediated cell signaling; assay: Gi-mediated cellular response measured by cellular impedance (CellKey system) after siRNA knockdown in osteoblasts; format: cell-based; conditions: for Effect of OPN knock down on Gi-mediated transduction: 48 h post transfection; for Effect of siRNA on OPN-dependent change of Gi-mediated cell signaling: in presence of OPN
Experimental: Gi-mediated cellular response in the presence siRNAs against rOPN was measured by cellular impedance using the CellKey™ system (Akoume et al., 2010; and Akoume et al., 2013 (J. Vis. Exp.)) in functional groups FG1, FG2 and FG3;
as §1
SiRNAs against integrins β1, β3 and β5 reversed the effect of OPN on Gi-mediated response while blockade of CD44 further potentiated the effect of OPN.
as §2
MC3T3-E1 cells were also used to check the effect of the knockdown of OPN's receptors by RNAi. Experimental conditions were as described for Example 5. The sequence of RNA oligonucleotides used for the knockdowns are: integrin β1 (CCU MG UCA GCA GUA GGA ACA UUA U (SEQ ID NO: 15)), integrin β3 (CCUCCAGCUCAUUGUUGAUGCUUAU (SEQ ID NO: 16)); integrin β5 ([…], HSS-105572, Life technologies (SEQ ID NO: 17), […], HSS-105573, Life technologies (SEQ ID NO: 18); and […], HSS-179984, life technologies, (SEQ ID NO: 19)) and CD44 (GM CM GGA GUC GUC AGA MC UCC A (SEQ ID NO: 20)).

[3] = osteoblasts from FG1 AIS subjects, increasing rOPN, or OPN 500 ng/ml or HA 10 μM
[4] = osteoblasts from FG2 AIS subjects, increasing rOPN, or OPN 500 ng/ml or HA 10 μM
[5] = osteoblasts from FG3 AIS subjects, increasing rOPN, or OPN 500 ng/ml or HA 10 μM
[6] = osteoblasts from control (healthy) subjects, OPN 500 ng/ml or HA 10 μM
[7] = osteoblasts from control subjects

Substance: Hyaluronic acid [HA]
- Effect on Gi-mediated cellular response [1, 3]: increases the Gi-mediated cellular response
- Effect on Gi-mediated cellular response [1, 4]: decreases the Gi-mediated response
- Effect on Gi-mediated cellular response [1, 5]: decreases the Gi-mediated response
- Effect on Gi-mediated cellular response [1, 6]: decreases the Gi-mediated response

Substance: OPN siRNA: siRNA for knock down of OPN expression: CCA CAG CCA CM GCA GUC CAG AUU A (CCACAGCCACAAGCAGUCCAGAUUA; listed as RNA, chemistry not fully specified)
- Effect of OPN knock down on Gi-mediated transduction ([2]; FG1): tends to decrease the response
- Effect of OPN knock down on Gi-mediated transduction ([2]; FG2): increases Gi-mediated transduction
- Effect of OPN knock down on Gi-mediated transduction ([2]; FG3): increases Gi-mediated transduction

Substance: OPN: osteopontin, encoded by SPP1 (Gene ID 6696); recombinant rOPN added to osteoblasts
- Effect on Gi-mediated cellular response [1, 3]: enhances Gi signaling
- Effect on Gi-mediated cellular response [1, 4]: aggravates the impairment
- Effect on Gi-mediated cellular response [1, 5]: aggravates the impairment
- Effect on Gi-mediated cellular response [1, 6]: decreases the Gi-mediated response

Substance: siRNA against CD44: RNA oligonucleotide for CD44 knockdown: GM CM GGA GUC GUC AGA MC UCC A (GAACAAGGAGUCGUCAGAAACUCCA; listed as RNA, chemistry not fully specified)
- Effect of siRNA on OPN-dependent change of Gi-mediated cell signaling ([2]; osteoblasts from FG1 subjects): further increased Gi-mediated cell signaling
- Effect of siRNA on OPN-dependent change of Gi-mediated cell signaling ([2]; osteoblasts from FG2 subjects): further decreased Gi-mediated cell signaling; also recorded: further reduced Gi-mediated signaling
- Effect of siRNA on OPN-dependent change of Gi-mediated cell signaling ([2]; osteoblasts from FG3 subjects): further decreased Gi-mediated cell signaling; also recorded: further reduced Gi-mediated signaling
- Effect of siRNA on OPN-dependent change of Gi-mediated cell signaling [2, 7]: further decreased Gi-mediated cell signaling; also recorded: further reduced Gi-mediated signaling

Substance: siRNA against integrin β1: RNA oligonucleotide for integrin β1 knockdown: CCU MG UCA GCA GUA GGA ACA UUA U (CCUAAGUCAGCAGUAGGAACAUUAU; listed as RNA, chemistry not fully specified)
- Effect of siRNA on OPN-dependent change of Gi-mediated cell signaling ([2]; osteoblasts from FG1 subjects): reduced (blocked) the increase in Gi-mediated response induced by OPN
- Effect of siRNA on OPN-dependent change of Gi-mediated cell signaling ([2]; osteoblasts from FG2 subjects): can be reversed
- Effect of siRNA on OPN-dependent change of Gi-mediated cell signaling ([2]; osteoblasts from FG3 subjects): can be reversed
- Effect of siRNA on OPN-dependent change of Gi-mediated cell signaling [2, 7]: can be reversed

Substance: siRNA against integrin β3: RNA oligonucleotide for integrin β3 knockdown: CCUCCAGCUCAUUGUUGAUGCUUAU (CCUCCAGCUCAUUGUUGAUGCUUAU; listed as RNA, chemistry not fully specified)
- Effect of siRNA on OPN-dependent change of Gi-mediated cell signaling ([2]; osteoblasts from FG1 subjects): reduced (blocked) the increase in Gi-mediated response induced by OPN
- Effect of siRNA on OPN-dependent change of Gi-mediated cell signaling ([2]; osteoblasts from FG2 subjects): can be reversed
- Effect of siRNA on OPN-dependent change of Gi-mediated cell signaling ([2]; osteoblasts from FG3 subjects): can be reversed
- Effect of siRNA on OPN-dependent change of Gi-mediated cell signaling [2, 7]: can be reversed
